Tests used:
wild-type mice [1] = assay: Morphine conditioned place preference (CPP) test in wild-type mice; conditions: donepezil hydrochloride 1 or 3 mg/kg i.p. (both doses) 20 min before morphine 5 mg/kg, 3-day conditioning, P<0.01, FIG. 4a
wild-type mice [2] = assay: Cocaine CPP test in wild-type mice; conditions: donepezil hydrochloride 1 or 3 mg/kg i.p. (both doses) 20 min before drug, cocaine 10 mg/kg daily, 3 days, P<0.01, FIG. 5a
IT-tg and IT-wt mice [3] = assay: Morphine CPP test in cholinergic cell-eliminated (IT-tg) and IT-wt mice with donepezil pretreatment; format: in vivo; conditions: donepezil hydrochloride 1 mg/kg i.p. 20 min before morphine 5 mg/kg, 3-day conditioning
Method: (§1) Cholinergic cell-eliminated (IT-tg) mice wherein ACh-expressing cells (cholinergic cells) in the NAc were ablated were prepared and used in the experiment for examining the effects of reduction of ACh level in the NAc on sensitivity to an addictive drug (a drug dependence-producing drug). Selective ablation of cholinergic cells in the NAc was conducted through immunotoxin-mediated cell targeting (IMCT) techniques using transgenic mice and anti-Tac(Fv)-PE38 as the immunotoxin (Kobayashi et al., Proc. Natl Acad. Sci. USA 92, 1132-1136 (1995); Watanabe et al., Cell 95, 17-27 (1998)). […] Anti-Tac(Fv)-PE38 is an immunotoxin that can specifically recognize cells expressing hIL-2Rα and inhibits their protein synthesis, thereby eliminating the cells expressing hIL-2Rα. The present inventors have developed a method for selectively ablating cholinergic cells in the NAc; the method comprising administering anti-Tac(Fv)-PE38 locally to a transgenic mouse whose NAc specifically expressed hIL-2Rα in cholinergic cells. […] Both wild-type and transgenic mice were C57B6/J strain. […] The above-mentioned IT-treated transgenic mouse was used as cholinergic cell-eliminated mouse (IT-tg) in the Experiments and Examples hereinafter described.

wild-type mice [4] = assay: Development of cocaine-induced locomotor sensitization in wild-type mice; conditions: donepezil 1 mg/kg 10 min before daily cocaine 10 mg/kg i.p., 10 min measurement, ANOVA P<0.001, FIG. 5b
wild-type mice [5] = assay: Cocaine-induced hyperlocomotion on day 6 after establishment of cocaine dependence, wild-type mice; format: in vivo; conditions: cocaine 10 mg/kg i.p. daily 5 days, day 6 pretreatment 1 mg/kg 10 min before cocaine, FIG. 5c, P<0.001, P<0.01
Method: Wild-type mice (9-13 weeks) received intraperitoneal injection of cocaine (10 mg/kg) once a day for 5 days. […] On day 6, the mice were pretreated with saline, donepezil (1 mg/kg) or galanthamine (1 mg/kg) 10 min before intraperitoneal injection of cocaine (10 mg/kg), and the cocaine-induced locomotor activity was measured for 10 min (n=5-12 for each group).

wild-type mice [6] = assay: Relapse of cocaine-induced hyperlocomotion after drug deprivation, wild-type mice; format: in vivo; conditions: cocaine 10 mg/kg 6 days, withheld days 7-11, day 12 donepezil 1 mg/kg 10 min before cocaine, P<0.001 vs saline, FIG. 5e
Method: Drug-induced sensitization caused by continuous daily cocaine administration persists for a long term even after a prolonged period of abstinence from the drug. This is taken seriously as a mechanism of relapse, whereby a drug dependent individual resumes taking a drug after a long-term interruption. The effects of donepezil in blocking relapse of cocaine dependence were examined as follows: Wild-type mice (9-13 weeks) received intraperitoneal injection of cocaine (10 mg/kg) once a day for 6 days and cocaine dependence was established in mice. For 5 days, from day 7 to day 11, mice were withheld from cocaine and were kept in their home cage. On day 12, the mice were pretreated with saline or donepezil (1 mg/kg) 10 min before intraperitoneal injection with cocaine (10 mg/kg). The locomotor activity was then measured for 10 min (n=6 for each group).

IT-wt and IT-tg mice = assay: Cocaine-induced hyperlocomotion on day 6 in IT-wt and IT-tg mice; format: in vivo; conditions: cocaine 10 mg/kg daily 5 days, day 6 donepezil 1 mg/kg 10 min before cocaine
Method: Cholinergic cell-eliminated (IT-tg) mice wherein ACh-expressing cells (cholinergic cells) in the NAc were ablated were prepared and used in the experiment for examining the effects of reduction of ACh level in the NAc on sensitivity to an addictive drug (a drug dependence-producing drug). Selective ablation of cholinergic cells in the NAc was conducted through immunotoxin-mediated cell targeting (IMCT) techniques using transgenic mice and anti-Tac(Fv)-PE38 as the immunotoxin (Kobayashi et al., Proc. Natl Acad. Sci. USA 92, 1132-1136 (1995); Watanabe et al., Cell 95, 17-27 (1998)). Anti-Tac (Fv)-PE38 is a recombinant fusion protein composed of a variable region of a monoclonal antibody against human interleukin 2 receptor α subunit (hIL-2Rα) and Pseudomonas exotoxin, and can be purified from E. coli BL21 as described by Chaudhary et al. (Nature 339, 394-397 (1989)). Anti-Tac(Fv)-PE38 is an immunotoxin that can specifically recognize cells expressing hIL-2Rα and inhibits their protein synthesis, thereby eliminating the cells expressing hIL-2Rα. […]
The present investigation was conducted to examine whether ACh derived from the NAc cholinergic cells is responsible for cocaine-induced hyperlocomotion. […] Their cocaine-induced locomotion was then measured for 10 min (n=7-11 for each group). […]

IT-tg and IT-wt mice [7] = assay: CPP test of sensitivity to addictive drugs in IT-tg and IT-wt mice
IT-tg and IT-wt mice [8] = assay: Conditioned place aversion (CPA) test, naloxone-precipitated morphine withdrawal; conditions: naloxone 1 mg/kg after morphine 50 mg/kg
IT-tg and IT-wt mice [9] = assay: Morphine withdrawal symptom (jumping) induced by naloxone; conditions: naloxone 1 mg/kg 1 hr after morphine 50 mg/kg
IT-tg mice = assay: Cocaine CPP test in IT-tg mice with ACh receptor agonist pretreatment; format: in vivo; conditions: methyl atropine 2 mg/kg pretreatment, pilocarpine 100 mg/kg 20 min before cocaine 5 mg/kg, 3 days, P<0.01 vs saline, FIG. 6
Method: as §1

## COc1cc2c(cc1OC)C(=O)C(CC1CCN(Cc3ccccc3)CC1)C2 (stereo not drawn) [donepezil]
wild-type mice [1]
  development of morphine-induced CPP: significantly reduced
wild-type mice [2]
  degree of cocaine-induced CPP: significantly reduced
IT-tg and IT-wt mice [3]; IT-tg mice, FIG. 4b
  morphine-induced CPP in IT-tg mice: failed to suppress
IT-tg and IT-wt mice [3]; IT-wt mice, P<0.01, FIG. 4b
  morphine-induced CPP in IT-wt mice: significantly reduced
wild-type mice [4]
  increase in locomotor activity by repeated cocaine administration (locomotor sensitization): no such increase was observed
wild-type mice [5]
  cocaine-induced hyperlocomotion on day 6: significantly effective in inhibiting
wild-type mice [6]
  abnormal hyperlocomotion after cocaine re-administration on day 12 (relapse): no abnormal hyperlocomotion was observed
IT-wt and IT-tg mice; IT-tg mice, FIG. 5d
  effects on cocaine-induced locomotion in IT-tg group: not observed
IT-wt and IT-tg mice; IT-wt mice, P<0.05, FIG. 5d
  cocaine-induced abnormal behaviors (locomotor sensitization) in IT-wt group: significantly decreased

## COc1ccc2c3c1O[C@H]1C[C@@H](O)C=C[C@@]31CCN(C)C2 [galanthamine]
wild-type mice [5]
  cocaine-induced hyperlocomotion on day 6: significantly effective in inhibiting

## CN1CC[C@]23c4c5ccc(O)c4O[C@H]2[C@@H](O)C=C[C@H]3[C@H]1C5 [morphine]
IT-tg and IT-wt mice [7]; IT-tg mice, 3-day conditioning with 1 mg/kg morphine i.p., P<0.05, FIG. 2a
  place preference for morphine-paired chamber, IT-tg mice, 1 mg/kg: significant preference
IT-tg and IT-wt mice [7]; IT-wt mice, 3-day conditioning with 1 mg/kg morphine i.p., FIG. 2a
  place preference for morphine-paired chamber, IT-wt mice, 1 mg/kg: no such preference was observed
IT-tg and IT-wt mice [7]; both IT-tg and IT-wt mice, conditioning with 5 mg/kg morphine
  place preference for morphine-paired chamber, 5 mg/kg: exhibited place preference

## C=CCN1CC[C@]23c4c5ccc(O)c4O[C@H]2C(=O)CC[C@@]3(O)[C@H]1C5 [naloxone]
IT-tg and IT-wt mice [8]; both IT-tg and IT-wt morphine-dependent mice, FIG. 2b
  place aversion to naloxone-paired chamber: exhibited place aversion
IT-tg and IT-wt mice [8]; morphine-dependent mice, P<0.05, FIG. 2b
  place aversion to naloxone-paired chamber, IT-tg vs IT-wt mice: stronger place aversion
IT-tg and IT-wt mice [9]; IT-tg and IT-wt morphine-dependent mice, counted over 20 min
  jumping (physical morphine withdrawal symptom): observed in both
IT-tg and IT-wt mice [9]; morphine-dependent mice, 20 min, P<0.05, FIG. 3
  number of jumps, IT-tg vs IT-wt mice: significantly more number of jumps

## CC[C@@H]1C(=O)OC[C@@H]1Cc1cncn1C [pilocarpine]
IT-tg mice
  development of cocaine-induced CPP in IT-tg mice: significantly reduced
